Measurements as given in ChEMBL document CHEMBL2046440, “C-Aryl 5a-carba-β-d-glucopyranosides as novel sodium glucose cotransporter 2 (SGLT2) inhibitors for the treatment of type 2 diabetes” (Bioorg Med Chem, 2012).
The source made the active and inactive calls. The rule behind the calls is not given here.

Key:
[1] = biological target: T1, Sodium/glucose cotransporter 2 (Homo sapiens, UniProt P31639); assay: Inhibition of human SGLT2 expressed in CHO-K1 cells by [14C]AMG uptake assay; assay type: cell-based
T1 sequence (P31639 whole entry): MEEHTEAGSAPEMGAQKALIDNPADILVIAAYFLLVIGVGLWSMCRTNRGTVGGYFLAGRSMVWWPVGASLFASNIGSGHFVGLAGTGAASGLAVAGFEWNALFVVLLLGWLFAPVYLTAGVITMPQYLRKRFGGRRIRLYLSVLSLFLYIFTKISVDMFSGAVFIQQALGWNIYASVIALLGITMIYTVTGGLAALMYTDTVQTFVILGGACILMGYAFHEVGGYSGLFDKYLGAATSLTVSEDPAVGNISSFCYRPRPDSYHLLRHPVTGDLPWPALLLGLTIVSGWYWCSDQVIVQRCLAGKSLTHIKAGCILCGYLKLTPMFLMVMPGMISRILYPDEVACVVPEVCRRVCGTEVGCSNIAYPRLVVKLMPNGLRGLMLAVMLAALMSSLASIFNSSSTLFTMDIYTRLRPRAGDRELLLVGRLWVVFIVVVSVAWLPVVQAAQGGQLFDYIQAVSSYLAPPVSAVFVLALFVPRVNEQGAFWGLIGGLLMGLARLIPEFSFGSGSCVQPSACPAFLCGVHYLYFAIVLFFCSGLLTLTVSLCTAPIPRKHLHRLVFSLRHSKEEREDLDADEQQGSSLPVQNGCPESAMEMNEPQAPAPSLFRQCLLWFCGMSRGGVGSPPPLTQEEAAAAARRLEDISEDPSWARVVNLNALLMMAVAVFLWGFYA

Cytochrome P450 3A4 [2] = biological target: T2, Cytochrome P450 3A4 (Homo sapiens, UniProt P08684); assay: Inhibition of CYP3A4 using BFC substrate in which compound added to reaction mixture simultaneously with BFC substrate by fluorometric assay; assay type: ADME
T2 sequence (P08684 whole entry): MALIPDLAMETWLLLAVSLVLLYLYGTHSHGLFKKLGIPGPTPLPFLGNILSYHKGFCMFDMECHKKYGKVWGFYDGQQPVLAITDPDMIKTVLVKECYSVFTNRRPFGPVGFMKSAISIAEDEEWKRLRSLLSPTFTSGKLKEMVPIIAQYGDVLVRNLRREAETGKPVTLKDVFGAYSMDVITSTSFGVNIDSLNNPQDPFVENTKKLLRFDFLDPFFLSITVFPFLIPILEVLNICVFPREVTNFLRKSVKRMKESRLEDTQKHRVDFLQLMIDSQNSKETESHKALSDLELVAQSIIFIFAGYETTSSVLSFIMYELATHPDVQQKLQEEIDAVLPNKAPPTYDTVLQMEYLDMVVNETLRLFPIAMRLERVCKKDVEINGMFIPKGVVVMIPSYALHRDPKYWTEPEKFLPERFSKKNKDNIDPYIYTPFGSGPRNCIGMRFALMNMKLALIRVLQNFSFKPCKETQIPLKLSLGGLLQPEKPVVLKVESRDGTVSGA

Cytochrome P450 3A4 [3] = biological target: T2, Cytochrome P450 3A4; assay: Inhibition of CYP3A4 using BFC substrate in which compound added to reaction mixture before addition of BFC substrate by fluorometric assay; assay type: ADME
Mus musculus [4] = assay: Hypoglycemic effect in db/db mouse assessed as reduction in glucose level at 30 mg/kg, po measured 4 hrs post dose administered as single dose by hexokinase method; assay type: functional, organism-based; set-up: dose 30 mg/kg
Mus musculus [5] = assay: Hypoglycemic effect in db/db mouse assessed as reduction in glucose level at 30 mg/kg, po measured 8 hrs post dose administered as single dose by hexokinase method; assay type: functional, organism-based; set-up: dose 30 mg/kg
Mus musculus [6] = assay: Hypoglycemic effect in db/db mouse assessed as reduction in glucose AUC (0 to 8 hrs) at 30 mg/kg, po administered as single dose by hexokinase method relative to untreated control; assay type: functional; set-up: scale not given: the % may be the effect or the level left
[7] = (§1) Half life in db/db mouse at 10 mg/kg, po administered as single dose by LC-MS/MS system method; assay type: ADME, organism-based; set-up: dose 10 mg/kg, route oral; settings: db/db, in vivo
[8] = Tmax in db/db mouse at 10 mg/kg, po administered as single dose by LC-MS/MS system method; assay type: ADME, organism-based; set-up: dose 10 mg/kg, route oral; settings: in vivo
[9] = (§2) Cmax in db/db mouse at 10 mg/kg, po administered as single dose by LC-MS/MS system method; assay type: ADME, organism-based; set-up: dose 10 mg/kg, route oral; settings: db/db, in vivo
[10] = AUC (infinity) in db/db mouse at 10 mg/kg, po administered as single dose by LC-MS/MS system method; assay type: ADME, organism-based; set-up: time infinity, dose 10 mg/kg, route oral; settings: plasma
[11] = (§3) Apparent volume of distribution during terminal phase in db/db mouse at 10 mg/kg, po administered as single dose by LC-MS/MS system method; assay type: ADME, organism-based; set-up: dose 10 mg/kg, route oral; settings: db/db, in vivo, read-out: Vz/F
[12] = Apparent oral clearance in db/db mouse at 10 mg/kg, po administered as single dose by LC-MS/MS system method; assay type: ADME, organism-based; set-up: dose 10 mg/kg, route oral; settings: in vivo
Mus musculus [13] = assay: as §1; assay type: ADME, organism-based; set-up: dose 10 mg/kg, route oral; settings: in vivo
Mus musculus [14] = assay: as §2; assay type: ADME, organism-based; set-up: dose 10 mg/kg, route oral; settings: in vivo
Mus musculus [15] = assay: as §3; assay type: ADME, organism-based; set-up: dose 10 mg/kg, route oral; settings: in vivo
Mus musculus [16] = assay: Hypoglycemic effect in db/db mouse assessed as reduction in glucose AUC (0 to 8 hrs) at 100 mg/kg, po administered as single dose by hexokinase method relative to untreated control; assay type: functional; set-up: scale not given: the % may be the effect or the level left
CYP3A4 = CYP3A4 (Homo sapiens, UniProt P08684); assay: in vitro; settings: probe BFC
CYP3A4, sequence (P08684 whole entry): as above
Description: Potency index, ratio of IC50 for CYP3A4 (unknown origin) using BFC substrate in which compound added to reaction mixture simultaneously with BFC substrate to IC50 for CYP3A4 using BFC substrate in which compound added to reaction mixture before addition of BFC substrate

Cytochrome P450 3A4 [17] = biological target: T2, Cytochrome P450 3A4; assay: Inhibition of CYP3A4 using BFC substrate by fluorometric assay; assay type: ADME; settings: TDE = time-dependent effect

| Compound | IC50 [1] [nM] | IC50 (Cytochrome P450 3A4 [2]) [nM] | IC50 (Cytochrome P450 3A4 [3]) [nM] | other results |
| --- | --- | --- | --- | --- |
| CCOc1ccc(Cc2ccc(CC)cc2)cc1[C@@H]1C[C@H](CO)[C@@H](O)[C@H](O)[C@H]1O | 19 | 36600 | > 50000 | Activity (Mus musculus [4]): Active; Activity (Mus musculus [5]): Active; Activity (Mus musculus [6]): 42.6%; half-life [7]: 94.2 min; Tmax [8]: 15 min; Cmax [9]: 3680 ng/mL; AUC(0-inf) [10]: 6240 ng·h/mL; Vd/F [11]: 3.63 L/kg; CL/F [12]: 26.7 mL/min/kg |
| CCc1ccc(Cc2cccc([C@@H]3C[C@H](CO)[C@@H](O)[C@H](O)[C@H]3O)c2)cc1 | 49 | > 50000 | > 50000 |  |
| CCOC(=O)OC[C@H]1O[C@@H](Oc2ccccc2Cc2ccc(OC)cc2)[C@H](O)[C@@H](O)[C@@H]1O [SERGLIFLOZIN ETABONATE] |  |  |  | Activity (Mus musculus [4]): Active; Activity (Mus musculus [5]): inactive; t1/2 (Mus musculus [13]): 49.2 min; Tmax [8]: 15 min; Cmax (Mus musculus [14]): 3360 ng/mL; AUC(0-inf) [10]: 2970 ng·h/mL; Vz/F (Mus musculus [15]): 3.315 L/kg |
| Cc1ccc([C@@H]2O[C@H](CO)[C@@H](O)[C@H](O)[C@H]2O)cc1Cc1ccc(-c2ccc(F)cc2)s1 [CANAGLIFLOZIN ANHYDROUS] | 6.7 |  |  |  |
| COc1ccc(Cc2ccccc2O[C@@H]2C[C@H](CO)[C@@H](O)[C@H](O)[C@H]2O)cc1 |  |  |  | Activity (Mus musculus [16]): 41.6%; t1/2 (Mus musculus [13]): 161 min; Tmax [8]: 15 min; Cmax (Mus musculus [14]): 1640 ng/mL; AUC(0-inf) [10]: 3070 ng·h/mL; Vz/F (Mus musculus [15]): 12.586 L/kg |
| CCc1ccc(Cc2ccc(OC)c([C@]3(O)C[C@H](CO)[C@@H](O)[C@H](O)[C@H]3O)c2)cc1 | 14 |  |  |  |
| CCc1ccc(Cc2ccc(C)c([C@]3(O)C[C@H](CO)[C@@H](O)[C@H](O)[C@H]3O)c2)cc1 | 170 |  |  |  |
| CCc1ccc(Cc2ccc(OC)c([C@@H]3C[C@H](CO)[C@@H](O)[C@H](O)[C@H]3O)c2)cc1 | 12 | > 50000 | > 50000 |  |
| CCOc1ccc(Cc2ccc(CC)cc2)cc1[C@]1(O)C[C@H](CO)[C@@H](O)[C@H](O)[C@H]1O | 9.9 |  |  | Activity (Mus musculus [4]): Active; Activity (Mus musculus [5]): inactive; Activity (Mus musculus [6]): 39.1% |
| CCc1ccc(Cc2cc([C@@H]3C[C@H](CO)[C@@H](O)[C@H](O)[C@H]3O)c(OC)cc2OC)cc1 | 8.5 | 25700 | 40300 | IC50 shift (CYP3A4): 0.6 |
| CCc1ccc(Cc2cc([C@]3(O)C[C@H](CO)[C@@H](O)[C@H](O)[C@H]3O)ccc2OC)cc1 | 100 |  |  |  |
| CCc1ccc(Cc2cc([C@]3(O)C[C@H](CO)[C@@H](O)[C@H](O)[C@H]3O)c(OC)cc2OC)cc1 | 10 | 29000 | > 50000 |  |
| CCc1ccc(Cc2ccc(C)c([C@@H]3C[C@H](CO)[C@@H](O)[C@H](O)[C@H]3O)c2)cc1 | 52 |  |  |  |
| COc1ccc(Cc2cccc([C@@H]3C[C@H](CO)[C@@H](O)[C@H](O)[C@H]3O)c2)cc1 | 73 | > 50000 | > 50000 |  |
| CCc1ccc(Cc2cc([C@@H]3C[C@H](CO)[C@@H](O)[C@H](O)[C@H]3O)ccc2OC)cc1 | 8.3 |  |  |  |
| OC[C@H]1C[C@@H](c2cccc(Cc3ccc(C4CC4)cc3)c2)[C@H](O)[C@@H](O)[C@@H]1O | 11 | 76000 | 33000 | inhibition (INH) (Cytochrome P450 3A4 [17]): tde; IC50 shift (CYP3A4): 2.3 |
